Results from patent US20060052456A1, “Kynurenine 3-hydroxylase inhibitors for the treatment of diabetes by increasing the number of islets of langerhans cells” (MERCK PATENT GMBH, priority 2003, published 2006).
Marks after values point to notes of the source that are not given here.

Legend:
[1] = tested on: hepatocytes; assay: Hepatic glucose production in vitro in isolated hepatocytes (Table IV); assay type: cell-based, Wistar rats; conditions: for inhibition of hepatic glucose production in vitro (in words): isolated rat hepatocytes
Experimental: The following two methods were used:
(§1) 1) The hepatocytes are cultured for 16 to 18 hours in DMEM medium in the presence of AMP cyclase/dexamethasone at respective concentrations of 5×10^−5 M and 5×10^−7 M, with preincubation of the products at the test doses. After washing in pH 7.4 PBS buffer, the cells are incubated for three hours at 37° C. in a Krebs/AMPc/DEX buffer at the abovementioned concentrations. 0.1 μM insulin is used as reference substance. Two identical experiments are performed (Table III-1).
(§2) After washing in pH 7.4 PBS buffer, the cells are incubated for two hours at 37° C. in a Krebs buffer free of glucose and of insulin, containing lactate/pyruvate (10/1 mM) in the presence or absence of the test compounds. 10 μM MICA (5-methoxyindole-2-carboxylic acid) is used as reference substance. Two identical experiments are performed (Table III-2).
The protein assay is performed on the rest of the incubation medium via the Lowry method (BIO-RAD Dc protein assay, BIO-RAD 5000116).
(§3) The results are expressed as nmoles of glucose produced per […] of proteins. The statistical test used is the t test.

[2] = target: T1, kynurenine 3-hydroxylase (Rattus norvegicus, UniProt O88867); assay: Inhibitory activity on kynurenine 3-hydroxylase in rat liver homogenate; assay type: biochemical; conditions: mean of two experiments, read-out: IC50, kynurenine 3-hydroxylase inhibition
T1 construct: from tissue; host or cells: rat liver homogenate (12000 rpm pellet, resuspended)
Experimental: Study of the Inhibitory Activity on Kynurenine 3-Hydroxylase in Rat Liver
Rat livers are homogenised (1:8 weight/volume) in a buffer solution comprising: 0.25 M sucrose; 50 mM pH 7.4 Tris; 1 mM EDTA; and 1 mM DTT.
The homogenates are centrifuged for 10 minutes at 12000 rpm. The pellets are resuspended in the buffer solution described above (1:2 weight/volume).
The kynurenine 3-hydroxylase inhibition is determined by incubating 10 μL of the homogenate with NADPH (2 mM), kynurenine (100 μM) and various concentrations of the test compounds in a final volume of 100 μL at 37° C. for 5 minutes.
The compounds are tested at concentrations of between 1 μM and 300 μM. 3,4-Dimethoxy-N-[4-(3-nitrophenyl)thiazol-2-yl]benzenesulfonamide is a compound from the company Hoffmann-LaRoche (Basle, see J. Med. Chem., 40 (1997), 4738). 30H-Kynurenine was tested according to the protocol described by Carpendo et al. (Neuroscience, 61 (1994), 237-244).
Each of the experiments is repeated once and the IC50 values (in μmol/L) are calculated and given in the form of a mean of these two experiments.
Results concerning representative examples of family Ih are given in Table II below, in which is indicated the measurement of the percentage of remaining kynurenine 3-hydroxylase activity relative to the control (100%).

[3] = tested on: perfused isolated pancreases from N0 STZ diabetic rats; assay: Secretion of insulin and glucagon in perfused isolated pancreases from N0 STZ diabetic rats; assay type: cell-based; conditions: perfused diabetic rat pancreas; absence of glucose, then 16.5 mM glucose; glucose-dependent
From the text: The results are expressed as the mean ±SEM (standard error of mean) of several experiments. The statistical test used is the Scheffé test.

[4] = tested on: N0STZ rats; assay: Antidiabetic activity in N0STZ rats (glycaemia after oral treatment); assay type: in vivo, rat; conditions: for percentage change in the glycaemia relative to D0, D4 (20 mg) / percentage change in the glycaemia relative to D0, D4 (200 mg): four days of treatment; for percentage change in the glycaemia relative to D0, D1 (20 mg) / percentage change in the glycaemia relative to D0, D1 (200 mg): one day of treatment
Experimental: Study of the Antidiabetic Activity in N0STZ Rats
The antidiabetic activity of the compounds of the formulae (I) and (II) orally was determined on an experimental model of non-insulin-dependent diabetes, induced in rats with steptozotocin.
The model of non-insulin-dependent diabetes is obtained in the rats by means of a neonatal injection (on the day of birth) of steptozotocin.
The diabetic rats used are eight weeks old. The animals are housed, from the day of birth to the day of the experiment, in an animal house at a regulated temperature of 21 to 22° C. and subjected to a fixed cycle of light (from 7 a.m. to 7 p.m.) and darkness (from 7 p.m. to 7 a.m.). Their food consisted of a maintenance diet, and water and food were given “ad libitum”, with the exception of fasting two hours before the tests, during which period the food is removed (post-absorptive state).
The rats are treated orally for one (D1) or four (D4) days with the test product. Two hours after the final administration of the product and 30 minutes after anaesthetising the animals with pentobarbital sodium (Nembutal®), a 300 μL blood sample is taken from the end of the tail.
The results presented below are expressed as a percentage change in the glycaemia on D1 and D4 (number of days of treatment) relative to D0 (before the treatment).

[5] = tested on: primary hepatocytes; assay: Hepatic glucose production stimulated by AMPc/DEX in primary hepatocytes (Table III-1); assay type: cell-based, Wistar rats
Experimental: (§4) The hepatocytes are isolated from the liver of Wistar rats fasted for 24 hours, according to the method described in Methods Cell Biol., 13 (1975), 29-83.
as §1
(§5) Quantification of the glucose is performed via a calorimetric method using glucose oxidase (IL test™ Glucose, Monarch 181633-80). The protein assay is performed on the rest of the incubation medium via the Lowry method (BIO-RAD Dc protein assay, BIO-RAD 5000116).
as §3

[6] = tested on: primary hepatocytes; assay: Hepatic glucose production, basal Lact/Pyr 2 hours, in primary hepatocytes (Table III-2); assay type: cell-based, Wistar rats
Experimental: as §4
2) The hepatocytes are cultured for 16 to 18 hours in RPMI 1640 medium free of glucose but supplemented with 1% glutamine, 100 U/mL penicillin, […] streptomycin and 7×10^−5 M hydrocortisone hemisuccinate.
as §2, §5, §3

T1 sequence (O88867 whole entry): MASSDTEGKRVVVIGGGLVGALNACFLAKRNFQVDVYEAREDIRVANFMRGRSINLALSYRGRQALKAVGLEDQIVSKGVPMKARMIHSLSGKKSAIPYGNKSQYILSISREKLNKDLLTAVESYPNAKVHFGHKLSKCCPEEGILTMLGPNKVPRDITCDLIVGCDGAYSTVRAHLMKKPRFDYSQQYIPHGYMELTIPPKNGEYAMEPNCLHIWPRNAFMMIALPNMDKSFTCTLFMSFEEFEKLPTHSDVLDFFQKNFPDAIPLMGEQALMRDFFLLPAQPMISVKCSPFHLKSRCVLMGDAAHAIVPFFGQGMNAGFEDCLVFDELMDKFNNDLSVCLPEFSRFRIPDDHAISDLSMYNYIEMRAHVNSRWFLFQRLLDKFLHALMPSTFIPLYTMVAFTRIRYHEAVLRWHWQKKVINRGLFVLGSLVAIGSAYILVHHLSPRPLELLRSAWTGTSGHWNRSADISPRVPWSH

O=C(C[C@@H](Cc1ccccc1)C(=O)O)c1ccc(Cl)c(Cl)c1 (racemic) [Compound j, (R,S)-2-benzyl-4-(3′,4′-dichlorophenyl)-4-oxobutanoic acid]
inhibition of hepatic glucose production ([1]; 1 μM): 30** % | inhibition of hepatic glucose production ([1]; 10 μM): 51** % | inhibition of hepatic glucose production ([1]; 100 μM): 65** % | inhibition of hepatic glucose production in vitro (in words) [1]: powerful inhibitors of hepatic glucose production in vitro

O=C(C[C@@H](Cc1ccccc1)C(=O)O)c1ccc(F)cc1 [Compound i, (R)-2-benzyl-4-(4-fluorophenyl)-4-oxobutanoic acid]
IC50 [2]: 1000 ± 200 nM | inhibition at 1 µM ([1]; Rattus norvegicus, Hepatocyte, 1 μM): 13% | inhibition at 10 µM ([1]; Rattus norvegicus, Hepatocyte, 10 μM): 28% | inhibition at 100 µM ([1]; Rattus norvegicus, Hepatocyte, 100 μM): 62% | inhibition of hepatic glucose production in vitro (in words) [1]: powerful inhibitors of hepatic glucose production in vitro | glucagon secretion (in words) [3]: stimulation | insulin secretion (in words) [3]: stimulation

O=C(CC(Sc1ccc2ccccc2c1)C(=O)O)c1ccccc1 (centres unmarked) [Ih-1, 2-(2′-naphthylthio)-4-phenyl-4-oxobutanoic acid]
percentage change in the glycaemia relative to D0, D4 (20 mg) [4]: −12% | percentage change in the glycaemia relative to D0, D4 (200 mg) [4]: −21% | percentage change in the glycaemia relative to D0, D1 (20 mg) [4]: 7% | percentage change in the glycaemia relative to D0, D1 (200 mg) [4]: 10% | HGP % of control ([5]; 1 μM): 103 % of control | HGP % of control ([5]; 10 μM): 83 % of control | HGP % of control ([5]; 100 μM): 15 % of control | HGP % of control ([6]; 1 μM): 110 % of control | HGP % of control ([6]; 10 μM): 127 % of control | HGP % of control ([6]; 100 μM): 75 % of control | inhibition of hepatic glucose production in vitro (in words) [1]: powerful inhibitors of hepatic glucose production in vitro

O=C(CC(Sc1ccccc1)C(=O)O)c1ccccc1 (centres unmarked) [Ih-2, 2-phenylthio-4-phenyl-4-oxobutanoic acid]
melting point: 132 to 135 °C

O=C(CC(Sc1ccc(F)cc1)C(=O)O)c1ccccc1 (centres unmarked) [Ih-3, 2-(4′-fluorophenylthio)-4-phenyl-4-oxobutanoic acid]
percentage change in the glycaemia relative to D0, D4 (20 mg) [4]: −19% | percentage change in the glycaemia relative to D0, D4 (200 mg) [4]: −12% | percentage change in the glycaemia relative to D0, D1 (20 mg) [4]: −3% | percentage change in the glycaemia relative to D0, D1 (200 mg) [4]: 7%

O=C(CC(Sc1ccc(Cl)cc1)C(=O)O)c1ccccc1 (centres unmarked) [Ih-4, 2-(4′-chlorophenylthio)-4-phenyl-4-oxobutanoic acid]
melting point: 140 to 142 °C

Cc1ccc(SC(CC(=O)c2ccccc2)C(=O)O)cc1 (centres unmarked) [Ih-5, 2-(4′-methylphenylthio)-4-phenyl-4-oxobutanoic acid]
melting point: 132 to 134 °C

COc1ccc(SC(CC(=O)c2ccccc2)C(=O)O)cc1 (centres unmarked) [Ih-6, 2-(4′-methoxyphenylthio)-4-phenyl-4-oxobutanoic acid]
melting point: 116 to 118 °C

O=C(CC(SC1CCCCC1)C(=O)O)c1ccccc1 (centres unmarked) [Ih-7, 2-cyclohexylthio-4-phenyl-4-oxobutanoic acid]
melting point: 117 °C

O=C(CC(SCc1ccccc1)C(=O)O)c1ccccc1 (centres unmarked) [Ih-8, 2-benzylthio-4-phenyl-4-oxobutanoic acid]
melting point: 143 to 146 °C

COc1ccc(C(=O)CC(Sc2ccccc2)C(=O)O)cc1 (centres unmarked) [Ih-17, 2-phenylthio-4-(4′-methoxyphenyl)-4-oxobutanoic acid]
melting point: 121 to 125 °C

COc1ccc(C(=O)CC(Sc2ccc(F)cc2)C(=O)O)cc1 (centres unmarked) [Ih-18, 2-(4′-fluorophenylthio)-4-(4′-methoxyphenyl)-4-oxobutanoic acid]
melting point: 108 to 110 °C

COc1ccc(C(=O)CC(Sc2ccc(Cl)cc2)C(=O)O)cc1 (centres unmarked) [Ih-19, 2-(4′-chlorophenylthio)-4-(4′-methoxyphenyl)-4-oxobutanoic acid]
melting point: 120 to 121 °C
